Experimental data reported in US12226410B2, “Methods for enhancing cellular clearance of pathological molecules via activation of the cellular protein ykt6” (NORTHWESTERN UNIVERSITY, priority 2019, dated 2025).

Test system: lysosomal GCase
Assay: Live cell GCase activity assay in A53T iPSn
Type: cell-based, human
Procedure: FIGS. 6A, 6B, 6C, 6D, 6E, 6F, and 6G. FTIs enhance lysosomal GCase activity and reduce pathological a-syn by blocking ykt6 farnesylation. 6A) GCase activity in FTI-treated A53T iPSn at d80 (LNK-754 5 nM, 5d). 6B) GCase activity in FTI-treated A53T iPSn expressing empty vector (vect) or ykt6-CS (n=4). 6C) Lysosomal GCase activity was assessed in FTI-treated SHSY5Y cells transfected with scrambled or ykt6 shRNA (KD) (n=3). 6D) Quantification of Triton X-100 soluble (T-sol) a-syn by western blot from FTI-treated A53T iPSn (5 nM, 7d). *, non-specific band. (n=3). 6E) Quantification of insoluble a-syn from A53T iPSn as in D (n=3). 6F) Insoluble a-syn in FTI-treated H4 cells (5 nM, 5 days) transfected with either scrambled or ykt6 shRNA (n=6). 6G) Neuron viability was assessed in FTI-treated A53T iPSn (5 nM, 14d from d86-d100) by quantification of neurofilament protein. Right, neuron viability in FTI-treated A53T iPSn expressing empty vector or ykt6-CS (n=4). Values are the mean+/−SEM, *p<0.05, **p<0.01, ***p<0.001.
Live cell GCase activity assay. […] Fluorescent signal was quantified over time and normalized to total cell volume using CellTag 700 (Licor) or lysosomal mass by using cascade dextran blue (#D-1976, Thermofisher). […]
Treatment of cultures with farnesyltransferase inhibitors. […] Cultures were harvested and analyzed as described in the above sections.

## C#Cc1cccc(-c2cc(=O)n(C)c3ccc([C@](O)(c4ccc(Cl)cc4)c4cncn4C)cc23)c1 [LNK-754]
1 nM
  lysosomal GCase activity: partially rescued
4 and 10 nM
  lysosomal GCase activity: near-complete rescue
